The text below walks through data of patent US20240150356A1, “Pyrimidine amide compounds and use thereof” (ALPHALA CO., LTD., priority 2019, published 2024).

Molecules are shown by their SMILES. Read-outs that look alike come from different tables or passages of the source.

Format in all cases: cell-based
Test [1] deals with NCI-H460 (human lung cancer cell line). Briefly: In vitro MTS cell viability assay (NCI-60 methodology), NCI-H460. The following applies: NCI-H460 cells, read-out: NCI-H460 LC50. The protocol: (§1) The cell viability measurement is based on the NCI-60 screening methodology (Nat. Rev. Cancer 6, 813-823, 2006). Briefly, cells are inoculated into 96-well plates at the optimal plating density. After 24 h, one of the two plates for Hep3B cell line is processed to determine a time zero cell viability (Tz) by MTS assay (Promega). Compounds are added over a 2-fold serial dilution to provide a total five drug concentrations plus DMSO control. Plates are incubated for a further 2 days, then measured cell viability by MTS assay [control growth (C) and test growth in the presence of drug at the five concentration levels (Ti)]. The LC50 is calculated from [(Ti−Tz)/Tz]×100=−50, which is the drug concentration resulting in a 50% reduction at the end of the drug treatment as compared to that at the beginning.
(§2) The compounds prepared in Tables 1-10 were tested in three in vitro assays, and the results are shown in Tables 1-10 for Hep3B and Table 11 for SW480 and NCI-H460 shown below. Herein, Hep3B refers to hepatocellular carcinoma cell line, SW480 refers to colon adenocarcinoma cell line, and NCI-H460 refers to human lung cancer cell line.
(§3) Shown in Tables 11 are in vitro activities of exemplary compounds of formula (I).

Test [2] relates to Hep3B cells (hepatocellular carcinoma cell line). Briefly: In vitro MTS cell viability assay (NCI-60 methodology), Hep3B. The following applies: Homo sapiens, 48 h, 2 days drug incubation, 50% reduction vs time zero, read-out: Hep3B LC50. The procedure, abridged: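 Following NCI-60 method, MTS viability of Hep3B measured 24 h after plating (time zero) and after a further 2-day exposure to five concentrations (2-fold series). LC50 defined where [(Ti−Tz)/Tz]×100 = −50.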
For orientation: Formazan colour is commonly taken as a measure of viable cells.

For test [3], the system named is SW480 (colon adenocarcinoma cell line). Briefly: In vitro MTS cell viability assay (NCI-60 methodology), SW480. The following applies: Homo sapiens, SW480 cells, read-out: SW480 LC50. Here is the method: as §1, §2, §3

In the case of `O=C(Nc1nc(-c2ccc(Cl)cc2F)nc2c1cnn2-c1ccccc1)c1ccc([N+](=O)[O-])s1` [Compound 5-47, N-(6-(4-chloro-2-fluorophenyl)-1-phenyl-1H-pyrazolo[3,4-d]pyrimidin-4-yl)-5-nitrothiophene-2-carboxamide], the CC50 worked out at 290 nM in test [1] and 610 nM in test [3]. Also, the LC50 in test [2] (Table 5, MTS) worked out at 130 nM.

Consider `O=C(Nc1nc(-c2ccc(Cl)cc2Cl)nc2c1cnn2-c1ccccc1)c1ccc([N+](=O)[O-])s1` [Compound 5-49], for which the results for the CC50 in test [1] and in test [3] were 1220 nM and 3750 nM, respectively. The LC50 in test [2] (Table 5, MTS) came out at 270 nM.

For the compound `O=C(Nc1nc(-c2ccc(OCC(F)(F)C(F)F)nc2)nc2c1cnn2-c1ccccc1)c1ccc([N+](=O)[O-])s1` [Compound 5-56, 5-nitro-N-(1-phenyl-6-(6-(2,2,3,3-tetrafluoropropoxy)pyridin-3-yl)-1H-pyrazolo[3,4-d]pyrimidin-4-yl)thiophene-2-carboxamide], the values for the CC50 in test [1] and in test [3] were 1100 nM and 730 nM, respectively. In addition, the LC50 in test [2] (Table 5, MTS) turned out to be 400 nM.

Consider `Cc1ccc(-n2ncc3c(NC(=O)c4ccc([N+](=O)[O-])s4)nc(-c4ccc(F)cc4)nc32)cc1` [Compound 6-4, N-(6-(4-fluorophenyl)-1-(p-tolyl)-1H-pyrazolo[3,4-d]pyrimidin-4-yl)-5-nitrothiophene-2-carboxamide], for which the CC50 in test [1] was 680 nM; in test [3] it was 1510 nM. Also, the median lethal concentration (LC50) in test [2] (Table 6, MTS) stood at 280 nM.

For the compound `Cc1ccc(-n2ncc3c(NC(=O)c4ccc([N+](=O)[O-])s4)nc(-c4ccc(F)nc4)nc32)cc1` [Compound 6-5, N-(6-(6-fluoropyridin-3-yl)-1-(p-tolyl)-1H-pyrazolo[3,4-d]pyrimidin-4-yl)-5-nitrothiophene-2-carboxamide], the CC50 came out at 910 nM in test [1] and 650 nM in test [3]. For the same compound, the LC50 in test [2] (Table 6, MTS) amounted to 110 nM.

For `Cc1ccc(-n2ncc3c(NC(=O)c4ccc([N+](=O)[O-])s4)nc(-c4ccc(F)cc4F)nc32)cc1` [Compound 6-11], the CC50 was found to be 330 nM in test [1] and 670 nM in test [3]. For the same compound, the LC50 in test [2] (Table 6, MTS) was determined as 280 nM.

`COc1ccc(-n2ncc3c(NC(=O)c4ccc([N+](=O)[O-])s4)nc(-c4ccc(F)cc4)nc32)cc1` [Compound 6-18, N-(6-(4-fluorophenyl)-1-(4-methoxyphenyl)-1H-pyrazolo[3,4-d]pyrimidin-4-yl)-5-nitrothiophene-2-carboxamide]: the CC50 in test [1] turned out to be 270 nM; in test [3] it was 1240 nM. Besides, in test [2] (Table 6, MTS), the LC50 amounted to 180 nM.

On to `COc1ccc(-n2ncc3c(NC(=O)c4ccc([N+](=O)[O-])s4)nc(-c4ccc(F)nc4)nc32)cc1` [Compound 6-19, N-(6-(6-fluoropyridin-3-yl)-1-(4-methoxyphenyl)-1H-pyrazolo[3,4-d]pyrimidin-4-yl)-5-nitrothiophene-2-carboxamide], for which the CC50 in test [1] came out at 220 nM; in test [3], 450 nM. The LC50 in test [2] (Table 6, MTS) was 60 nM.

Take `CCOCCOCCOc1ccc(-c2nc(NC(=O)c3ccc([N+](=O)[O-])s3)c3cnn(-c4ccc(OC)cc4)c3n2)cn1` [Compound 6-28, N-(6-(6-(2-(2-ethoxyethoxy)ethoxy)pyridin-3-yl)-1-(4-methoxyphenyl)-1H-pyrazolo[3,4-d]pyrimidin-4-yl)-5-nitrothiophene-2-carboxamide]: the CC50 in test [1] was 680 nM; in test [3], 3440 nM. Also, the LC50 in test [2] (Table 6, MTS) was found to be 190 nM.

Consider `O=C(Nc1nc(-c2ccc(F)cc2)nc2c1cnn2-c1cccc(Cl)c1)c1ccc([N+](=O)[O-])s1` [Compound 6-35, N-(1-(3-chlorophenyl)-6-(4-fluorophenyl)-1H-pyrazolo[3,4-d]pyrimidin-4-yl)-5-nitrothiophene-2-carboxamide], for which the CC50 in test [1] was 500 nM; in test [3], 520 nM. The LC50 in test [2] (Table 6, MTS) stood at 110 nM.

With `O=C(Nc1nc(-c2ccc(F)nc2)nc2c1cnn2-c1cccc(Cl)c1)c1ccc([N+](=O)[O-])s1` [Compound 6-36, N-(1-(3-chlorophenyl)-6-(6-fluoropyridin-3-yl)-1H-pyrazolo[3,4-d]pyrimidin-4-yl)-5-nitrothiophene-2-carboxamide], the CC50 was determined as 670 nM in test [1] and 2800 nM in test [3]. Besides, the LC50 in test [2] (Table 6, MTS) turned out to be 90 nM.

For the compound `O=C(Nc1nc(-c2ccc3c(c2)OCO3)nc2c1cnn2-c1cccc(Cl)c1)c1ccc([N+](=O)[O-])s1` [Compound 6-39, N-(6-(benzo[d][1,3]dioxol-5-yl)-1-(3-chlorophenyl)-1H-pyrazolo[3,4-d]pyrimidin-4-yl)-5-nitrothiophene-2-carboxamide], the figures for the CC50 in test [1] and in test [3] were 1070 nM and 3180 nM, respectively. Also, in test [2] (Table 6, MTS), the LC50 amounted to 270 nM.

As to `CCOCCOCCOc1ccc(-c2nc(NC(=O)c3ccc([N+](=O)[O-])s3)c3cnn(-c4cccc(Cl)c4)c3n2)cn1` [Compound 6-45, N-(1-(3-chlorophenyl)-6-(6-(2-(2-ethoxyethoxy)ethoxy)pyridin-3-yl)-1H-pyrazolo[3,4-d]pyrimidin-4-yl)-5-nitrothiophene-2-carboxamide], the CC50 in test [1] stood at 570 nM; in test [3], 580 nM. In addition, the LC50 in test [2] (Table 6, MTS) turned out to be 220 nM.

For the compound `CCOCCOCCOc1ccc(-c2nc(NC(=O)c3ccc([N+](=O)[O-])s3)c3cnn(-c4ccc(Cl)cc4)c3n2)cn1` [Compound 6-53, N-(1-(4-chlorophenyl)-6-(6-(2-(2-ethoxyethoxy)ethoxy)pyridin-3-yl)-1H-pyrazolo[3,4-d]pyrimidin-4-yl)-5-nitrothiophene-2-carboxamide], the CC50 in test [1] is 1090 nM; in test [3], 1040 nM. Moreover, the 50% lethal concentration (LC50) in test [2] (Table 6, MTS) came out at 130 nM.

As to `O=C(Nc1nc(-c2ccc(F)nc2)nc2c1cnn2-c1ccc(C(F)(F)F)cc1)c1ccc([N+](=O)[O-])s1` [Compound 6-54, N-(6-(6-fluoropyridin-3-yl)-1-(4-(trifluoromethyl)phenyl)-1H-pyrazolo[3,4-d]pyrimidin-4-yl)-5-nitrothiophene-2-carboxamide], the CC50 in test [1] was 330 nM; in test [3], 340 nM. Besides, in test [2] (Table 6, MTS), the LC50 was 130 nM.

Regarding `COc1nc(NC(=O)c2ccc([N+](=O)[O-])s2)c2cnn(-c3ccc(C(C)(C)C)cc3)c2n1` [Compound 6-57, N-(1-(4-(tert-butyl)phenyl)-6-methoxy-1H-pyrazolo[3,4-d]pyrimidin-4-yl)-5-nitrothiophene-2-carboxamide], the CC50 came out at 2750 nM in test [1] and 1240 nM in test [3]. Further, in test [2] (Table 6, MTS), the LC50 was 700 nM.

For the compound `CN(C)CCOc1nc(NC(=O)c2ccc([N+](=O)[O-])s2)c2cnn(-c3ccc(C(C)(C)C)cc3)c2n1` [Compound 6-58, N-(1-(4-(tert-butyl)phenyl)-6-(2-(dimethylamino)ethoxy)-1H-pyrazolo[3,4-d]pyrimidin-4-yl)-5-nitrothiophene-2-carboxamide], the CC50 in test [1] was found to be 3970 nM; in test [3], 4090 nM. Besides, the LC50 in test [2] (Table 6, MTS) is 690 nM.

As to `CC(C)(C)c1ccc(-n2ncc3c(NC(=O)c4ccc([N+](=O)[O-])s4)nc(N4CCC(F)(F)C4)nc32)cc1` [Compound 6-66, N-(1-(4-(tert-butyl)phenyl)-6-(3,3-difluoropyrrolidin-1-yl)-1H-pyrazolo[3,4,d]pyrimidin-4-yl)-5-nitrothiophene-2-carboxamide], the CC50 in test [1] is 410 nM; in test [3], more than 10000 nM. The LC50 in test [2] (Table 6, MTS) is 130 nM.

One may read the LC50 as the concentration that kills 50% of the test population.
